From article PMC7395048 (Archives of Toxicology, 2020)
Where two headings read alike, the source gives them in different places.

Assays:
[1] = RED assay, unbound fraction in in vitro hiPSC-CM MEA assay medium; conditions: in vitro hiPSC-CM MEA assay medium (serum-free)
[2] = In vitro incubations with pooled human intestinal microsomes
[3] = in vivo, po; cited from earlier work
[4] = tested on: QTc interval in the human ECG; conditions: cited from earlier work
hiPSC-CM = hiPSC-CM MEA assay (FPDc, extracellular field potential)
Procedure: Briefly, each well of the MEA chips was precoated with 50 μg/ml fibronectin for 3 h in the incubator at 37 °C with 5% CO2. The fibronectin coating solution was aspirated before seeding. Cells were thawed in the incubator at 37 °C for exactly 4 min and carefully transferred to a 50-ml tube. The original vial was rinsed with serum free Pluricyte® Cardiomyocyte Medium and added drop-wise to the tube containing the cardiomyocytes. […] Then, the supernatant was removed and medium was drop-wisely added to reach the aimed concentration of cells in the suspension (10^4 cells/μl). 2-μl cell suspension per well was placed on the six-well MEA chips in a density of 10^4 cells/μl. After 3-h incubation (37 °C, 5% CO2), 200 μl of medium was filled into each well of the MEA chips which were subsequently incubated at 37 °C with 5% CO2 and refreshed with medium every 2 days.
At 7–8 days after seeding, MEA chips were placed on the headstage of a MEA2100-system (MCS GmbH) integrated with the chamber providing a stable atmosphere (37 °C, 5% CO2) to record the extracellular field potential (Fig. 2) of spontaneous beating hiPSC-CM. After an equilibration time of 20 min, half of the medium (100 μl) in each well was replaced by culture medium containing 0.2% (v/v) DMSO to reach a final concentration of 0.1% (v/v) DMSO, which was used as baseline condition. […] At each concentration, the extracellular field potential was recorded for 1 min after 10-min exposure. […] Same test concentrations were chosen for EDDP and EMDP, which enables definition of concentration-dependent curves for EDDP and EMDP that allow potency comparison.
One well of 0.1% (v/v) DMSO on each MEA chip was used as the vehicle control well and run at the same time as the compound exposure wells to correct for time- and DMSO-dependent effects on the field potential. A detailed exposure scheme can be found in Fig. S1. Data were collected using Cardio 2D software (MCS GmbH) with a sample frequency of 10 kHz and a 0.1–3.5-kHz band-pass filter.
Field potential duration (FPD) was defined as duration between the beginning of the sodium spike and the repolarizing peak (Fig. 2). RR-intervals were defined as the duration between two depolarization peaks (Fig. 2). The FPD and RR-interval were measured as the average of at least 30 beats from 1-min recording at each concentration of the test compound.
In this formula, the FPD and RR-interval are expressed in seconds. Data were collected from at least three independent experiments (4–8 wells, 26–38 electrodes), using a new vial of cells (all from the same batch) at each independent experiment. […] The concentrations inducing irregularities in the field potential trace (Fig. S2) were also noted.
The concentration–response curves were plotted with GraphPad Prism 5.0 using the four-parameters logistic fit (GraphPad Software Inc., San Diego, USA). Each data point is presented as the mean value of at least three independent experiments ± standard deviation (SD). Statistical significance of the changes in response of cells exposed to the compound compared to the solvent control was analyzed by one-way ANOVA followed by post Dunnett test. Values of p < 0.05 were regarded as statistically significant (p < 0.05: *, p < 0.01: ** and p < 0.001: ***). Statistical analysis was performed by GraphPad Prism 5.0 (GraphPad Software Inc.).

[5] = ref Eap et al. [1990]; Olsen [1973]; Romach et al. [1981]; Wilkins et al. [1997]; cited from earlier work
[6] = In vitro incubations with pooled human liver microsomes
Procedure: The test concentrations were chosen to enable adequate analysis of Michaelis–Menten kinetics. After one-min pre-incubation of this solution at 37 °C, the reactions were initiated by addition of human liver microsomes giving a final concentration of 0.5 mg/ml microsomal protein and incubations were performed in a shaking water bath at 37 °C for 40 min. Control incubations were performed in the absence of NADPH which was replaced with Tris–HCl. The reactions were terminated by addition of 40-µl ice-cold acetonitrile. Samples were kept on ice for at least 20 min and then centrifuged at 18,000g for 5 min at 4 °C to precipitate microsomal proteins.
Vmax and Km were obtained by fitting the data to Eq. (2) in GraphPad Prism 5.0 (GraphPad Software Inc.). Data were collected from three independent experiments and each data point is presented as the mean value ± SD.

[7] = case serials, person, 330 mg/day, baseline 411 ms assumed, ref Krantz et al. (2002)
[8] = cross-sectional, MMT and pain, 110 mg/day, 12.5 months, baseline 407 ms, ref Cruciani et al. (2005)
[9] = cross-sectional, MMT, 80 ± 27.5 mg/day, > 3 months, baseline 407 ms, ref Roy et al. (2012)
[10] = cross-sectional, MMT, 87 ± 76 mg/day, > 6 months, baseline 407 ms, ref Maremmani et al. (2005)
[11] = cross-sectional, MMT, 145 ± 83 mg/day, 61 ± 61 months, baseline 407 ms, ref Eap et al. (2007)
[12] = cross-sectional, MMT, 162.7 ± 28.7 mg/day, > 100 days, baseline 407 ms, ref Peles et al. (2007)
[13] = individual from prospective study, person one, 30 mg/day, baseline 420 ms, ref Fredheim et al. (2006)
[14] = individual from prospective study, person two, 30 mg/day, baseline 420 ms, ref Fredheim et al. (2006)
[15] = longitudinal, MMT, 45 ± 24 mg/day, 6 months, baseline 422 ± 24 ms, ref Chang et al. (2012)
[16] = prospective, MMT, 80 mg/day, 6 months, baseline 418.1 ±22 ms, ref Martell et al. (2005)
[17] = prospective, MMT, 64.6 ± 30.5 mg/day, 21 days, baseline 389.3 ms, ref Carlquist et al. (2015)
[18] = prospective, MMT, 80 ± 32 mg/day, 6 months, baseline 415.3 ms, ref Krantz et al. (2005)
[19] = prospective, cancer pain, 23 mg/day, 2 weeks, baseline 427 ms, ref Reddy et al. (2010)
[20] = retrospective, MMT, 87.9 mg/day, baseline 407 ms, ref Chowdhury et al. (2015)
[21] = retrospective, MMT, 100 mg/day, baseline 430 ms, ref Ehret et al. (2006)
[22] = retrospective, MMT, 74.5 ± 26.5 mg/day, 1.2 ± 1.6 years, baseline 429 ± 35 ms, ref Bart et al. (2017)
[23] = retrospective, MMT, 98 ± 55 mg/day, 74 ± 31 months, baseline 420 ± 33 ms, ref Fareed et al. (2013)
[24] = retrospective, veteran, 11 mg/day, 161 days, baseline 428 ms, ref Heesch et al. (2015)
[25] = retrospective, veteran, 24 mg/day, 161 days, baseline 436 ms, ref Heesch et al. (2015)
[26] = retrospective, veteran, 75 mg/day, 161 days, baseline 437 ms, ref Heesch et al. (2015)

For `CCC(=O)C(CC(C)N(C)C)(c1ccccc1)c1ccccc1` (centres unmarked) [methadone], the fraction unbound at 5 h, 150 µM [1] was 0.79 ± 0.041, the “formation of EDDP” value ([2]; 50 µM methadone, up to 120 min, up to 2 mg/ml protein) was “negligible formation of EDDP” and the EMDP formation ([2]; methadone as substrate) was “no EMDP formation was detected”. For the same compound, the “Fraction absorbed (Fa)” value [3] was 0.88, the “Post QTc” value ([4]; case report, 100 mg/day, baseline 405 ms assumed, ref Esses et al. (2008)) was 580 ms and the “Post QTc” value ([4]; case serials, person, 97 mg/day, baseline 405 ms assumed, ref Krantz et al. (2002)) was 560 ms. The “Post QTc” value ([4]; case serials, person, 270 mg/day, baseline 411 ms assumed, ref Krantz et al. (2002)) was 600 ms, the “Post QTc” value [4, 7] was 522 ms and the “QTc (% to baseline)” value [4, 7] was 127.0%. For the same compound, the “Post QTc” value ([4]; case serials, person, 550 mg/day, baseline 405 ms assumed, ref Krantz et al. (2002)) was 625 ms, the “Post QTc” value ([4]; case serials, person, 600 mg/day, baseline 405 ms assumed, ref Krantz et al. (2002)) was 635 ms and the Post-QTc [4, 8] was 428 ms. For the same compound, the QTc % [4, 8] was 105.2%, the Post-QTc [4, 9] was 421 ms and the QTc % [4, 9] was 103.4%. The Post-QTc [4, 10] was 423 ms, the QTc % [4, 10] was 103.9% and the Post-QTc [4, 11] was 423 ± 23 ms. The QTc % [4, 11] was 103.9%, the Post-QTc [4, 12] was 447.6 ± 31.7 ms and the QTc % [4, 12] was 110.0%. For the same compound, the “Post QTc” value [4, 13] was 410 ms, the “QTc (% to baseline)” value [4, 13] was 97.6% and the “Post QTc” value [4, 14] was 490 ms. For the same compound, the “QTc (% to baseline)” value [4, 14] was 116.7%, the Post-QTc [4, 15] was 430 ± 23 ms and the QTc % [4, 15] was 101.9%. The Post-QTc [4, 16] was 430.8 ± 24 ms, the QTc % [4, 16] was 103.04% and the Post-QTc [4, 17] was 411.1 ms. For the same compound, the QTc % [4, 17] was 105.6%, the Post-QTc [4, 18] was 429.4 ms and the QTc % [4, 18] was 103.40%. For the same compound, the Post-QTc [4, 19] was 430 ms, the QTc % [4, 19] was 100.7% and the Post-QTc [4, 20] was 453 ms. The QTc % [4, 20] was 111.3%, the Post-QTc [4, 21] was 440 ms and the QTc % [4, 21] was 102.33%. The Post-QTc [4, 22] was 440 ± 35 ms, the QTc % [4, 22] was 102.6% and the Post-QTc [4, 23] was 459 ± 29 ms. For the same compound, the QTc % [4, 23] was 109.3%, the Post-QTc [4, 24] was 430 ms and the QTc % [4, 24] was 100.5%. The Post-QTc [4, 25] was 439 ms, the QTc % [4, 25] was 100.7% and the Post-QTc [4, 26] was 446 ms. The QTc % [4, 26] was 102.1%, the “BMC20, prolongation of FPDc” value (hiPSC-CM; 20% change in FPDc over control, cumulative addition, 10-min exposure) was 0.6 µM and the “concentration at which cessation of beating was observed” value (hiPSC-CM; human, 10 min) was 30 µM. The “concentration from which arrhythmia-like waveforms were induced” value (hiPSC-CM; tested up to 30 µM) was at least 3 µM, the “cytotoxicity at the test concentrations” value (hiPSC-CM; up to 30 µM, data not shown) was “no cytotoxicity was observed” and the “fu,p, extreme value (low)” value [5] was 0.034. For the same compound, the Km at 40 min ([6]; human) was 275 ± 26.8 µM and the “EMDP formation from methadone” value ([6]; methadone as substrate) was “No EMDP formation was measured”.
